Test results from paper PMC12763877 (Journal of Experimental & Clinical Cancer Research : CR, 2025).

Legend:
APLNR = biological target: T1, APLNR (Homo sapiens, UniProt P35414); assay: Surface plasmon resonance (Biacore T200); conditions: APLNR on CM5 chip, 0.390625-12.5 µM, 1:1 kinetic binding model; read-out: equilibrium dissociation constant (KD)
T1 sequence (P35414 1-380): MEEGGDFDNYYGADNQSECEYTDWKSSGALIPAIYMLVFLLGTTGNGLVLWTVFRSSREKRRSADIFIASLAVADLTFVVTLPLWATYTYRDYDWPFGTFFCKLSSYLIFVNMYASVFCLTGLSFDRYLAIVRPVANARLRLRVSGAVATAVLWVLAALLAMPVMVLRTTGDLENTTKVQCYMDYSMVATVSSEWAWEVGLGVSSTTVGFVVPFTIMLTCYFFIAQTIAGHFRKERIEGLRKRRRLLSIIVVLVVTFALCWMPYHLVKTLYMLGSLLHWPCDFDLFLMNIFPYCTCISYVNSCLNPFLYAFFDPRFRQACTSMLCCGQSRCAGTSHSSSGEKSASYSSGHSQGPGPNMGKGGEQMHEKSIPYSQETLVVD
Experimental: SPR, which is a reliable method for analyzing real-time biomolecular interactions without labeling, was utilized to identify the binding affinity between APLNR and Candesartan. Candesartan is diluted with sterile phosphate-buffered saline (PBS). The APLNR protein is immobilized on a CM5 sensor chip via coupling, and then different concentrations of Candesartan (12.5 µM, 6.25 µM, 3.125 µM, 1.5625 µM, 0.78125 µM, 0.390625 µM) are injected. The Biacore T200 system can continuously and real-time monitor the changes in resonance units (RU), thereby obtaining the binding situation of candesartan with APLNR. The entire sensorgram is fitted using a 1:1 kinetic binding model, and the equilibrium dissociation constant (KD) is calculated.
To further analyze the binding capacity of candesartan to APLNR, we conducted surface plasmon resonance (SPR) analysis to determine the binding affinity between candesartan and APLNR. […] This gradual increase in RU values indicates specific binding of candesartan to APLNR.

[1] = system: 4T1 orthotopic breast tumor vasculature; assay: Tumor vascular normalization in breast cancer mouse model (immunofluorescence, lectin perfusion, HIF-1α IHC, H&E); type: in vivo, BALB/c mice
Experimental: The tumor tissues were then excised. […] All animals were raised in an SPF environment. […] We followed all the rules and regulations.
Paraffin-embedded mouse tumor tissue sections were deparaffinized, rehydrated, and fixed with 4% paraformaldehyde at room temperature for 20 min. After washing with PBS, the sections were permeabilized with 1% Triton X-100 (Solarbio, China) for 15 min at room temperature, followed by blocking with 5% bovine serum albumin (BSA) in PBS containing 0.1% Triton X-100 for 1 h at room temperature to reduce nonspecific binding. The sections were first incubated with primary antibodies against PECAM-1 (CD31) and α-smooth muscle actin (α-SMA), including Alexa Fluor 488-conjugated anti-CD31 antibody (clone SC-376764-AF488, Santa Cruz Biotechnology, […]) and rabbit anti-α-SMA antibody (catalog no. AF0048, Beyotime Biotechnology, China). After washing, the sections were further incubated overnight at 4 °C with primary antibodies against dsDNA and HSP60. The next day, the sections were incubated with Alexa Fluor 647-conjugated goat anti-rabbit IgG (H + L) secondary antibody (catalog no. A0468, Beyotime Biotechnology, China) for 1 h at room temperature in the dark. Nuclear staining was performed using DAPI (catalog no. C0060, Solarbio, China). Finally, all slides were mounted with antifade mounting medium and observed using a […] 5 confocal microscope (Leica Microsystems, Germany).
Immunohistochemical staining was performed on formalin-fixed, paraffin-embedded tissue sections. After deparaffinization and rehydration, antigen retrieval was conducted by heating the sections in citrate buffer (pH 6.0) at 95 °C for 12 min. Endogenous peroxidase activity was blocked by incubation with 3% hydrogen peroxide for 10 min at room temperature, followed by blocking of non-specific binding sites with 10% goat serum for 30 min at room temperature. The sections were then incubated overnight at 4 °C with a primary antibody against HIF-1α (rabbit anti-human, catalog no. 48085 T, Cell Signaling Technology, USA) diluted at 1:200. After washing, the sections were incubated with HRP-conjugated goat anti-rabbit IgG secondary antibody (catalog no. A0208, Beyotime Biotechnology, China) at a dilution of 1:500 for 30 min at room temperature. Color development was achieved using a DAB substrate kit, and the sections were counterstained with hematoxylin. After dehydration, clearing, and mounting with neutral resin, the stained sections were observed and imaged under an inverted microscope.
To quantitatively assess vascular maturation, we performed dual immunofluorescence staining for the endothelial cell marker CD31 and pericyte marker α-SMA in tumor tissues. […] In addition, vascular perfusion indicates their transmission function is crucial for the delivery of chemotherapeutic and […] agents. To evaluate the effect of candesartan on tumor vascular perfusion function, DyLight™649-labeled tomato lectin (40 mg/kg), which specifically labels perfused blood vessels, was injected into the mice via tail vein injection 1.5 h before sacrifice. Then, perform frozen sectioning of the tumor tissue, microvessels were labeled with CD31 by immunofluorescence, and the co-expression percentage of tomato lectin and CD31^+ was observed and calculated. As shown in Fig. 4C-D, only a small fraction of CD31^+ blood vessels in the control group were coated with tomato lectin, with a low percentage of CD31^+Lectin^+.

HUVEC [2] = assay: DNA damage: γ-H2AX western blot and alkaline comet assay; type: cell-based, human
Experimental: Total protein was extracted using RIPA lysis buffer (Solarbio, China) supplemented with phenylmethylsulfonyl fluoride (PMSF; Thermo Fisher Scientific, USA), protease inhibitor cocktail (Roche, Switzerland), and phosphatase inhibitor cocktail (Roche, Switzerland). Protein concentration was determined using a BCA protein assay kit (Thermo Fisher Scientific, USA). Equal amounts of protein were separated by 10% SDS-polyacrylamide gel electrophoresis (SDS-PAGE) and transferred onto nitrocellulose (NC) membranes. […] All primary antibodies were purchased from Cell Signaling Technology (CST, USA), except for GAPDH, which was obtained from Proteintech (Wuhan, China). After washing, the membranes were incubated with HRP-conjugated goat anti-rabbit or anti-mouse IgG secondary antibodies (Biosharp, China) for 1 h at room temperature. Protein bands were visualized using an enhanced chemiluminescence (ECL) detection system and scanned using a chemiluminescence imaging system.

HUVEC [3] = assay: ROS generation assay (DCFH-DA flow cytometry); type: cell-based, human; conditions: 3.75-15 µM
Experimental: Flow cytometry was performed to measure intracellular reactive oxygen species (ROS) levels using DCFH-DA (2’,7’-Dichlorodihydrofluorescein diacetate). Cells were collected and stained with DCFH-DA, followed by incubation at 37℃ for 30 min in the dark. Subsequently, the cell populations were analyzed by flow cytometry.

[4] = system: 4T1 cells (orthotopic breast cancer); assay: Anti-tumor efficacy in breast cancer mouse model, alone or with Sunitinib; type: in vivo, BALB/c mice
Experimental: Female BABL/c mice aged 6–8 weeks were purchased from Beijing SPF Biological Co., LTD. 4T1 cells in good growth condition were collected and injected in situ into the mammary fat pad of female BALB/c mice at a density of 2 × 10⁶ cells per mouse. […] When the tumor size increased to approximately 1200 mm^3, we will conduct further tests. It should be pointed out that, when studying vascular leakage, DyLight™ 649-labeled tomato lectin (Tomoto-lectin) was injected intravenously into the mice via the tail vein two hours prior to tissue collection. The tumor tissues were then excised. Half of each tumor was fixed in 4% paraformaldehyde and subsequently processed for paraffin embedding and immunofluorescence staining. The remaining half was immediately frozen in liquid nitrogen and prepared as frozen sections for further experimental procedures.
Paraffin-embedded mouse tumor tissue sections were deparaffinized, rehydrated, and fixed with 4% paraformaldehyde at room temperature for 20 min. After washing with PBS, the sections were permeabilized with 1% Triton X-100 (Solarbio, China) for 15 min at room temperature, followed by blocking with 5% bovine serum albumin (BSA) in PBS containing 0.1% Triton X-100 for 1 h at room temperature to reduce nonspecific binding. […] After washing, the sections were further incubated overnight at 4 °C with primary antibodies against dsDNA and HSP60. The next day, the sections were incubated with Alexa Fluor 647-conjugated goat anti-rabbit IgG (H + L) secondary antibody (catalog no. A0468, Beyotime Biotechnology, China) for 1 h at room temperature in the dark. Nuclear staining was performed using DAPI (catalog no. C0060, Solarbio, China).
To observe metastasis, tissues were harvested and fixed in Bouin’s solution (saturated picric acid 75 ml + 40% formaldehyde 25 ml + glacial acetic acid 5 ml). After fixation, tissues were stained with picric acid to visualize metastatic nodules, which appeared as distinct lesions against the background tissue.

[5] = candesartan 10 mg/kg, Sunitinib 40 mg/kg

Question: What does the source list for `CCOc1nc2cccc(C(=O)O)c2n1Cc1ccc(-c2ccccc2-c2nnn[nH]2)cc1` [Compound A-2, Candesartan]?
Answer: Kd (APLNR): 1.72 µM; Percentage of CD31+Lectin+ (vascular perfusion) ([1]; 10 mg/kg and 30 mg/kg, tomato lectin): significantly increased; Coverage of α-SMA+ pericyte on CD31+ endothelial cell ([1]; 10 mg/kg and 30 mg/kg, vs vehicle): significant increase; HIF-1α expression in tumor tissues ([1]; IHC): significant decline; Tumor necrosis (H&E) ([1]; high-dose 30 mg/kg): tendency towards increased necrosis; Tumor necrosis (H&E) ([1]; low-dose 10 mg/kg): reduced necrotic areas; DNA fragmentation (comet assay) (HUVEC [2]): increased DNA fragmentation; γ-H2AX expression (HUVEC [2]; western blot, 48 h): dose-dependent increase; ROS levels (HUVEC [3]): gradually increased with increasing drug concentration; Tumor growth ([4]; candesartan 10 mg/kg once daily, Sunitinib 40 mg/kg every two days, intragastric, 14 days, vs vehicle): significantly reduce the tumor growth; Coverage of pericytes on endothelial cells in tumors (CD31/α-SMA) [4, 5]: significantly increased; Lung surface nodules / pulmonary metastasis [4, 5]: inhibited pulmonary metastasis of breast cancer
